According to patent US8440637B2, “Combination treatment for the treatment of hepatitis C virus infection” (priority 2007, dated 2013):
“Also recorded” adds a separate entry of the source. Strand notation (5' to 3'): a small letter for the sugar, then the base; units joined by * are phosphorothioate-linked, units joined directly phosphodiester-linked; [ ] holds rarer units or linkages, { } end groups; capitals alone tell only the bases. l = locked nucleic acid (LNA); [5mC] = 5-methylcytosine; d = 2'-deoxy (DNA)

Key:
[1] = test system: 122R, DNA; assay: Melting temperature (Tm) of oligo against DNA complement; format: physicochemical
Method: The LNA anti-miR/miR-122a oligo duplex was diluted to 3 μM in 500 μl RNase free H2O, which was then mixed with 500 μl 2× dimerization buffer (final oligo/duplex conc. 1.5 μM, 2× Tm buffer: 200 mM NaCl, 0.2 mM EDTA, 20 mM NaP, pH 7.0, DEPC treated to remove RNases). The mix was first heated to 95 degrees for 3 minutes, then allowed to cool at room temperature (RT) for 30 minutes.
Following RT incubation Tm was measured on Lambda 40 UV/VIS Spectrophotometer with peltier temperature progammer PTP6 using PE Templab software (Perkin Elmer). The temperature was ramped up from 20° C. to 95° C. and then down again to 20° C., continuously recording absorption at 260 nm. First derivative and local maximums of both the melting and annealing was used to assess melting/annealing point (Tm), both should give similar/same Tm values. For the first derivative 91 points was used to calculate the slope.
However, in one embodiment the Tm may be made with a complementary DNA ([…]) molecule. Typically the Tm measured against a DNA complementary molecule is about 10° C. lower than the Tm with an equivalent RNA complement. The Tm measured using the DNA complement may therefore be used in cases where the duplex has a very high Tm.

[2] = test system: miR-122a target genes (Bckdk, aldolase A, Nrdg3, CD320, Vldlr); assay: miR-122a target mRNA levels in mouse liver by qPCR; format: in vivo; conditions: for upregulation of miR-122a target genes Bckdk and AldoA (in words) / Bckdk and AldoA mRNA levels compared to SEQ ID NO: 61 treated mice (in words): liver, 48 hours after last dose (Day 6)
Method: The saline control and different LNA-antimiR-122a treated animals were sacrificed 48 hours after last dose (Day 6), and total RNA was extracted from liver samples as using Trizol reagent according to the manufacturer's recommendations (Invitrogen, USA). The mRNA levels were assessed by real-time quantitative RT-PCR for two miR-122a target genes, Bckdk (branched chain ketoacid dehydrogenase kinase, ENSMUSG00000030802) and aldolase A (aldoA, ENSMUSG00000030695), respectively, as well as for GAPDH as control, using Taqman assays according to the manufacturer's instructions (Applied biosystems, USA).
NMRI mice were administered intravenously with SEQ ID NO: 61 SEQ ID NO: 61 using daily doses ranging from 2.5 to 25 mg/kg for three consecutive days. Animals were sacrificed 24 hours, 1, 2 or 3 weeks after last dose. Livers were harvested divided into pieces and submerged in RNAlater (Ambion) or snap-frozen. RNA was extracted with Trizol reagent according to the manufacturer's instructions (Invitrogen) from the RNAlater tissue, except that the precipitated RNA was washed in 80% ethanol and not vortexed. The RNA was used for mRNA TaqMan qPCR according to manufacturer (Applied biosystems) or northern blot (see below). The snap-frozen pieces were cryo-sectioned for in situ hybridizations.
Mice were treated with different SEQ ID NO: 61 SEQ ID NO: 61 doses for three consecutive days, as described above and sacrificed 24 hours after last dose. Total RNA extracted from liver was subjected to qPCR. […] Total liver RNA from 2 to 3 mice per group sacrificed 24 hours after last dose were subjected to qPCR for the indicated genes. Shown in FIG. 9 is mRNA levels relative to Saline group, n=2-3 (2.5-12.5 mg/kg/day: n=2, no SD). Shown is also the mismatch control (m, SEQ ID NO: 65).
Assayed genes: Nrdg3 Aldo A, Bckdk, CD320 with predicted miR-122 target site.
NMRI female mice were treated with 25 mg/kg/day SEQ ID NO: 61SEQ ID NO: 61 along with saline control for three consecutive days and sacrificed 1, 2 or 3 weeks after last dose, respectively. RNA was extracted from livers and mRNA levels of predicted miR-122a target mRNAs, selected by microarray data were investigated by qPCR. Three animals from each group were analysed.
mRNA levels are normalized to the individual GAPDH levels and to the mean of the Saline treated group at each individual time point. Included are also the values from the animals sacrificed 24 hours after last dose. Shown is mean and standard deviation, n=3 (24 h n=3)
The same liver RNA samples as in previous example were investigated for Vldlr induction.
NMRI female mice were treated with indicated doses of LNA-antimiR (SEQ ID NO: 61) along with a mismatch control (m, SEQ ID NO: 65), saline and antagomir (SPC3595) for three consecutive days and sacrificed 24 hours after last dose (as in example 11 “old design”, n=5). miR-122 levels were analyzed by qPCR and normalized to the saline treated group.
mRNA quantification of selected genes was done using standard Tag Man assays (Applied Biosystems). The reverse transcription reaction was carried out with random decamers, 0.5 μg total RNA, and the M-MLV RT enzyme from Ambion according to a standard protocol. First strand cDNA was subsequently diluted 10 times in nuclease-free water before addition to the RT-PCR reaction mixture. A two-fold cDNA dilution series from liver total RNA of a saline-treated animal or mock transfected cells cDNA reaction (using 2.5 times more total RNA than in samples) served as standard to ensure a linear range (Ct versus relative copy number) of the amplification. Applied Biosystems 7500 or 7900 real-time PCR instrument was used for amplification.

[3] = test system: HCV replicon (NNeo/C-5B); assay: HCV replication in Huh-7 cells transfected with HCV replicon, Northern blot; format: cell-based, Hepatitis C virus; conditions: Huh-7 with HCV replicon; 48 hours; compared to mock and mismatch control
Method: We assess the efficacy of SEQ ID NO: 63 reducing HCV replication in the Huh-7 based cell model. Preliminary data on SEQ ID NO: 63 along with its truncated version SEQ ID NO: 66 (13-mer LNA-antimiR) and 4 nt mismatch control from inhibiting HCV replication in the Huh-7 cell line transfected with a HCV replicon (NNeo/C-5B). The different LNA-antimiR molecules along with a 2′ OMe antisense and scramble oligonucleotide were transfected into Huh-7 cells, HCV was allowed to replicate for 48 hours. Total RNA samples extracted from the Huh-7 cells were subjected to Northern blot analysis.

Substance	Tm, oligo to DNA complement [1]	Vldlr induction in liver (in words) ([2]; 25 mg/kg/day for three consecutive days, 1, 2 or 3 weeks after last dose)	mRNA levels of predicted miR-122a target mRNAs over time (in words) ([2]; NMRI female mice, 25 mg/kg/day for three consecutive days, 1, 2 or 3 weeks after last dose)	de-repression of miR-122 target mRNAs (AldoA, Bckdk, CD320, Nrdg3) (in words) ([2]; NMRI female mice, three consecutive days, 24 hours after last dose, compared to antagomir treated mice, listed as LNA-antimiR)	induction of miR-122a target genes (Nrdg3, Aldo A, Bckdk, CD320) (in words) ([2]; different doses for three consecutive days, 24 hours after last dose)	upregulation of miR-122a target genes Bckdk and AldoA (in words) [2]	HCV RNA / inhibition of HCV replication (in words) [3]	Bckdk and AldoA mRNA levels compared to SEQ ID NO: 61 treated mice (in words) [2]
5′-ccAttGtcAcaCtcCa-3′ (antisense CCATTGTCACACTCCA; sugars from the 5' end ddlddlddlddlddld, backbone and methylation of C not given here) [SEQ ID NO: 61]	57 °C	transient up-regulation	transient induction followed by a restoration of normal expression levels	dose-dependent de-repression; also recorded: consistently higher	clear dose-dependent induction	clear dose-dependent upregulation		
5′-AttGTcaCaCtCC-3′ (antisense lA*dT*dT*lG*lT*dC*dA*l[5mC]*dA*l[5mC]*dT*l[5mC]*l[5mC]) [SEQ ID NO: 66]						clear dose-dependent upregulation	comparable efficacy with SEQ ID NO: 63	significantly higher
5′-CcAttGTcaCaCtCC-3′ (antisense CCATTGTCACACTCC; sugars from the 5' end ldlddllddldldll, backbone and methylation of C not given here) [SEQ ID NO: 63]	66 °C					clear dose-dependent upregulation	significant reduction of HCV RNA	significantly higher
